Biological target: T1, RBA1 (Arabidopsis thaliana, UniProt F4HT77)
T1 construct: TIR-only protein, recombinant from insect cells
T1 sequence (F4HT77 1-363): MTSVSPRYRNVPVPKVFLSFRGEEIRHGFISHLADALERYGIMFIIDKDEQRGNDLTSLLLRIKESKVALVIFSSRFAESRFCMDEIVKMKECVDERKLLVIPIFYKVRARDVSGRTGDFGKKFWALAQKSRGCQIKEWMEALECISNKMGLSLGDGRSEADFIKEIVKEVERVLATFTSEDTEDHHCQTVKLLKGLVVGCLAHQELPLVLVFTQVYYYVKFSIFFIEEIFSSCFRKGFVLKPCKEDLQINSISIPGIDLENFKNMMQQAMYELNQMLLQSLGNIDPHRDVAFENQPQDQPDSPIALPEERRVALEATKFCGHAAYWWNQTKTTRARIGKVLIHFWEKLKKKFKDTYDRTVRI
Assay: LC-MS/MS NADase assay
Type: biochemical
Details: in vitro

NC(=O)c1ccc[n+]([C@@H]2O[C@H](COP(=O)(O)OP(=O)(O)OC[C@H]3O[C@@H](n4cnc5c(N)ncnc54)[C@H](O)[C@@H]3O)[C@@H](O)[C@H]2O)c1 [NAD^+]
LC-MS/MS NADase assay: Recombinant RBA1 protein purified from insect cells cleaved NAD^+ into nicotinamide (Nam)

From paper doi:10.1101/2025.04.09.647920v1, “TIR immune signaling is blocked by phosphorylation to maintain growth in plants and animals” (biorxiv, 2025)
